According to ChEMBL document CHEMBL1201862, “PubChem BioAssay data set” (2004):
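A five-concentration, 48-hour dose response in 96-well plates underlies each endpoint, interpolated linearly between surrounding concentrations. GI50 = concentration required for 50% inhibition of growth.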 The source made the active and inactive calls. Cut-off read from the data, not from the text of the source: active = GI50 up to about 1.1 µM and inactive = higher.

Columns and labels:
Test in all cases: growth of human tumour cells (NCI), 48 h
[1] = system: 786-0
[2] = system: ACHN
[3] = system: DU-145
[4] = system: HCT-116
[5] = system: HOP-62
[6] = system: HT-29
[7] = system: K562
[8] = system: KM12
[9] = system: MCF7
[10] = system: MDA-MB-231
[11] = system: Malme-3M
[12] = system: NCI-H23
[13] = system: NCI-H460
[14] = system: OVCAR-5
[15] = system: OVCAR-8
[16] = system: PC-3
[17] = system: SK-MEL-28
[18] = system: SN12C
[19] = system: UACC-257
[20] = system: UACC-62

| SMILES | GI50 [1] | GI50 [2] | GI50 [3] | GI50 [4] | GI50 [5] | GI50 [6] | GI50 [7] | GI50 [8] | GI50 [9] | GI50 [10] | GI50 [11] | GI50 [12] | GI50 [13] | GI50 [14] | GI50 [15] | GI50 [16] | GI50 [17] | GI50 [18] | GI50 [19] | GI50 [20] |
| --- | --- | --- | --- | --- | --- | --- | --- | --- | --- | --- | --- | --- | --- | --- | --- | --- | --- | --- | --- | --- |
| CC(C)(C)N(Cc1ccc2c(c1)OCO2)C(=O)/C=C\[S+]([O-])c1ccccc1 (centres undefined) | 2.25 µM (inactive) | 3.97 µM (inactive) | 2.73 µM (inactive) | 2.74 µM (inactive) | 4.88 µM (inactive) | 3.23 µM (inactive) | 2.9 µM (inactive) | 3.85 µM (inactive) | 2.77 µM (inactive) | 2.95 µM (inactive) | 1.91 µM (inactive) | 2.27 µM (inactive) | 4.19 µM (inactive) | 10.7 µM (inactive) | 2.03 µM (inactive) | 2.5 µM (inactive) | 7.89 µM (inactive) | 2.63 µM (inactive) | 3.48 µM (inactive) | 3.37 µM (inactive) |
| COc1cc(/C=C2\CCC(C)C3=C(c4cc(OC)c(OC)c(OC)c4)C(C#N)=C(N)OC32)cc(OC)c1OC (centres undefined) | 1.95 µM (inactive) | 3.89 µM (inactive) | 5.09 µM (inactive) | 2.2 µM (inactive) | 7.45 µM (inactive) | 2 µM (inactive) | 2.85 µM (inactive) | 3.86 µM (inactive) | 2.24 µM (inactive) | 2.45 µM (inactive) | 2.59 µM (inactive) | 3.72 µM (inactive) | 3.57 µM (inactive) | 6.56 µM (inactive) | 3.3 µM (inactive) | 1.83 µM (inactive) | 2.85 µM (inactive) | 3.21 µM (inactive) | 4.32 µM (inactive) | 2.45 µM (inactive) |
| COC(=O)[C@@H](N1C(=O)c2ccccc2C1=O)C1(C)CC(Cl)=NO1 (some centres undefined) | 34.8 µM (inactive) | > 100 µM (inactive) | 44 µM (inactive) | 75.5 µM (inactive) | 17 µM (inactive) | > 100 µM (inactive) | > 100 µM (inactive) | > 100 µM (inactive) | 53.6 µM (inactive) | 19.1 µM (inactive) | > 100 µM (inactive) | 48.3 µM (inactive) | > 100 µM (inactive) | > 100 µM (inactive) | 19.1 µM (inactive) | > 100 µM (inactive) | > 100 µM (inactive) | 33 µM (inactive) | > 100 µM (inactive) | > 100 µM (inactive) |
| [O-]c1c[n+](CC[n+]2cc([O-])on2)no1 | > 100 µM (inactive) | > 100 µM (inactive) | > 100 µM (inactive) | > 100 µM (inactive) | > 100 µM (inactive) | > 100 µM (inactive) | > 100 µM (inactive) | > 100 µM (inactive) | > 100 µM (inactive) | > 100 µM (inactive) | > 100 µM (inactive) | > 100 µM (inactive) | > 100 µM (inactive) | > 100 µM (inactive) | > 100 µM (inactive) | > 100 µM (inactive) | > 100 µM (inactive) | > 100 µM (inactive) | > 100 µM (inactive) | > 100 µM (inactive) |
| c1ccc2c(CN3CCN(Cc4c[nH]c5ccccc45)CC3)c[nH]c2c1 | 16.1 µM (inactive) | 19.3 µM (inactive) | 18.3 µM (inactive) | 14.8 µM (inactive) | 15.1 µM (inactive) | 17.5 µM (inactive) | 12.7 µM (inactive) | 16.8 µM (inactive) | 17.9 µM (inactive) | 14.9 µM (inactive) | 15.3 µM (inactive) | 19.8 µM (inactive) | 12.7 µM (inactive) | 18.7 µM (inactive) | 19 µM (inactive) | 18.6 µM (inactive) | 17.9 µM (inactive) | 17.7 µM (inactive) | 14.4 µM (inactive) | 16.3 µM (inactive) |
| O=Cc1c2ccccc2n2ccc3c4ccccc4[nH]c3c12 | > 10 µM (inactive) | > 10 µM (inactive) | > 10 µM (inactive) | > 10 µM (inactive) | > 10 µM (inactive) | > 10 µM (inactive) | > 10 µM (inactive) | 0.344 µM (active) | 5.21 µM (inactive) | > 10 µM (inactive) | > 10 µM (inactive) | > 10 µM (inactive) | > 10 µM (inactive) | > 10 µM (inactive) | > 10 µM (inactive) | > 10 µM (inactive) |  | > 10 µM (inactive) | > 10 µM (inactive) | > 10 µM (inactive) |
| COc1ccc2c(c1)C(OC)C1c3c(cc4c(c3-2)OCO4)CCN1C (centres undefined) | 3.64 µM (inactive) | 1.82 µM (inactive) | 5.41 µM (inactive) | 2.1 µM (inactive) | 2.43 µM (inactive) | 2.21 µM (inactive) | 3.63 µM (inactive) | 4.34 µM (inactive) | 2.67 µM (inactive) | 2.44 µM (inactive) | 2 µM (inactive) | 2.8 µM (inactive) | 2.82 µM (inactive) | 3.13 µM (inactive) | 2.5 µM (inactive) | 2.6 µM (inactive) | 3.88 µM (inactive) | 2.64 µM (inactive) | 3.38 µM (inactive) | 2.11 µM (inactive) |
| O=C(Cn1cc(F)c(=O)[nH]c1=O)C12CC3CC(CC(C3)C1)C2 | > 100 µM (inactive) | > 100 µM (inactive) | > 100 µM (inactive) | > 100 µM (inactive) | > 100 µM (inactive) | > 100 µM (inactive) | > 100 µM (inactive) | > 100 µM (inactive) | > 100 µM (inactive) | > 100 µM (inactive) | > 100 µM (inactive) | > 100 µM (inactive) | > 100 µM (inactive) | > 100 µM (inactive) | > 100 µM (inactive) | > 100 µM (inactive) | > 100 µM (inactive) | > 100 µM (inactive) | > 100 µM (inactive) | > 100 µM (inactive) |
| COc1ccc2c3c1OC1C(OC)(OC)C=C[C@@]4(Br)[C@@H](C2)N(CC2CC2)CC[C@]314 (some centres undefined) | > 100 µM (inactive) | > 100 µM (inactive) | > 100 µM (inactive) | 44 µM (inactive) | > 100 µM (inactive) | 61.9 µM (inactive) | 52.8 µM (inactive) | > 100 µM (inactive) | 52.1 µM (inactive) | 45.6 µM (inactive) | 37.1 µM (inactive) | 71.3 µM (inactive) | 62.7 µM (inactive) | > 100 µM (inactive) | 61.4 µM (inactive) | 99.1 µM (inactive) | > 100 µM (inactive) | > 100 µM (inactive) | 69.8 µM (inactive) | 68.5 µM (inactive) |
| CCOC(=O)c1c(N2CCOCC2)[nH]c(=O)c(C(c2c(Cl)cccc2Cl)c2c(O)c(C(=O)OCC)c(N3CCOCC3)[nH]c2=O)c1O | 2.67 µM (inactive) | 4.54 µM (inactive) | 12.2 µM (inactive) | 4.39 µM (inactive) | 16.1 µM (inactive) | 3.56 µM (inactive) | 2.3 µM (inactive) | 16.9 µM (inactive) | 2.47 µM (inactive) | 12.3 µM (inactive) | 2.49 µM (inactive) | 7.19 µM (inactive) | 21.4 µM (inactive) | 14.4 µM (inactive) | 8.17 µM (inactive) | 15.5 µM (inactive) | 1.93 µM (inactive) | 4.92 µM (inactive) | 5.58 µM (inactive) | 6.9 µM (inactive) |
| COc1ccc(-c2nc3ccccc3c(=S)n2OC(C)=O)cc1 | 3.09 µM (inactive) | 2.99 µM (inactive) | 5.11 µM (inactive) | 1.91 µM (inactive) | 4.76 µM (inactive) | 2.55 µM (inactive) | 0.836 µM (active) | 1.64 µM (inactive) | 5.92 µM (inactive) | > 25 µM (inactive) | 4.76 µM (inactive) | 1.95 µM (inactive) | 1.05 µM (active) | > 25 µM (inactive) | 3.1 µM (inactive) | 1.29 µM (inactive) | 6.5 µM (inactive) | 8.07 µM (inactive) | 13.1 µM (inactive) | 2.8 µM (inactive) |
| COc1cc([C@@H]2c3cc4c(cc3[C@H](OC3OC5COC(C(C)C)OC5C(O)C3O)C3COC(=O)[C@@H]32)OCO4)cc(OC)c1OC (some centres undefined) | 2.58 µM (inactive) | 4.79 µM (inactive) | 11.7 µM (inactive) | 2.83 µM (inactive) | 7.24 µM (inactive) | 2.54 µM (inactive) | 3.19 µM (inactive) | 3.61 µM (inactive) | 3.38 µM (inactive) | 5.77 µM (inactive) | 4.57 µM (inactive) | 4.55 µM (inactive) | 2.34 µM (inactive) | 10.3 µM (inactive) | 4.13 µM (inactive) | 4.89 µM (inactive) | > 100 µM (inactive) | 19.5 µM (inactive) | 5.01 µM (inactive) | 4.7 µM (inactive) |
| N#Cc1c2c(c(N)oc1=O)C(c1ccccc1)CC(=O)N2 (centres undefined) | > 100 µM (inactive) | > 100 µM (inactive) | > 100 µM (inactive) | > 100 µM (inactive) | > 100 µM (inactive) | > 100 µM (inactive) | > 100 µM (inactive) | > 100 µM (inactive) | > 100 µM (inactive) | > 100 µM (inactive) | > 100 µM (inactive) | > 100 µM (inactive) | > 100 µM (inactive) | > 100 µM (inactive) | > 100 µM (inactive) | > 100 µM (inactive) | > 100 µM (inactive) | > 100 µM (inactive) | > 100 µM (inactive) | > 100 µM (inactive) |
| Br[Se]c1ccccn1 | 18.2 µM (inactive) | 16.3 µM (inactive) | 16.7 µM (inactive) | 18.3 µM (inactive) | 2.48 µM (inactive) | 25.3 µM (inactive) | 24.8 µM (inactive) | 17.3 µM (inactive) | 17.7 µM (inactive) | 17.7 µM (inactive) | 17.4 µM (inactive) | 20.7 µM (inactive) | 18.9 µM (inactive) | 20.2 µM (inactive) | 19.6 µM (inactive) | 16.4 µM (inactive) | 19.6 µM (inactive) | 18.7 µM (inactive) | 17.8 µM (inactive) | 17.1 µM (inactive) |
